We go through 3 compounds from patent publication US20200138892A1, “ANTI-DIABETIC ACTIVITY OF NEEM EXTRACT AND SYNERGISTIC COMBINATIONS OF UROLITHINS A AND B” (Natreon, Inc., priority 2018, published 2020).

Holding throughout (type): in vivo
In test [1] the test system is streptozotocin-induced diabetic mice. As to the kind of experiment: Fasting blood glucose in streptozotocin-induced diabetic mice (Study 2). The following applies: for Fasting blood glucose: 10 mg/kg body weight orally; for Effect on STZ-induced increased sugar level (FBG), words: 10 mg/kg orally for 1 month, p<0.001 vs STZ. As for the experimental part:
Body weight, food intake, water intake, and fasting blood glucose (blood was collected following 12 hours fasting) were measured pre-induction of diabetes. Diabetes was induced by administering streptozotocin (50 mg/kg, body weight) in sodium citrate buffer, pH 4.5, intraperitoneally. Five days after streptozotocin administration fasting blood glucose was estimated (following 12 hours of fasting). Mice having blood glucose level 250±20 mg % was considered for the following study. The male and female mice were divided into the following four groups (n=8):
Following streptozotocin-induced hyperglycemia, treatment regimen was carried out for 1 month. 3-OH-DBP (Urolithin B) and 3,8-(OH)2-DBP (Urolithin A) each was separately suspended in 0.3% CMC and administered at a dose of 10 mg/kg body weight orally for 1 month. During the 1-month treatment, body weight and food and water intake were monitored at regular intervals. FBG (following 12 hours of fasting) was estimated twice at 15-day intervals. The results were expressed in terms of mean±SEM (n=8). The data were subjected to one-way ANOVA followed by Tukey's test using GraphPad Prism 4.0 software to establish statistical significance (*p<0.05, **p<0.01, ***p<0.001; ^# p<0.05, ^## p<0.01, ^### p<0.001).

Test [2] shares this test system. In words: Fasting blood glucose in streptozotocin-induced diabetic mice (Study 1). The following applies: for Blood sugar level (FBG): 250 mg/kg b.w. orally; for Effect on STZ-induced increased sugar level (FBG), words: Neem 50, Neem 100, Neem 250, Met 250, vs STZ-induced diabetic mice. The protocol: (§1) Body weight, food intake, water intake, and fasting basal blood glucose level were measured before induction on diabetes. Diabetes was induced by single administration of streptozotocin (65 mg/kg body weight) in sodium citrate buffer, pH 4.5, intraperitoneally. Five days after streptozotocin administration, fasting blood glucose level was estimated. Mice having blood glucose levels of 230±20 mg % were considered for the study. The male and female mice each were divided into the following groups:
Following streptozotocin-induced hyperglycemia, the treatment regimen was carried out for two weeks. Neem extract was suspended in 0.3% sodium carboxymethylcellulose (“CMC”) and administered at a dose of 50 mg/kg b.w., 100 mg/kg b.w., and 250 mg/kg b.w. orally for two weeks. Similarly, metformin was suspended in 0.3% CMC and administered at a dose of 250 mg/kg b.w. orally for two weeks. During the treatment schedule, body weight and food and water intake were monitored at regular intervals. Fasting blood glucose (“FBG”), HbA1C, plasma cholesterol, and triglyceride levels were monitored every week for two weeks. The results were expressed in terms of mean±SEM (n=4, from each gender). The data were subjected to one-way ANOVA followed by Tukey's test using GraphPad Prism 4.0 software to establish statistical significance (*p<0.05, **p<0.01, ***p<0.001; ^# p<0.05, ^## p<0.01, ^### p<0.001).

The test system is the same in test [3]. As to the kind of experiment: HbA1C level in streptozotocin-induced diabetic mice (Study 1). The following applies: for HbA1C level: 250 mg/kg b.w. orally. The protocol: as §1
Following streptozotocin-induced hyperglycemia, the treatment regimen was carried out for two weeks. Neem extract was suspended in 0.3% sodium carboxymethylcellulose (“CMC”) and administered at a dose of 50 mg/kg b.w., 100 mg/kg b.w., and 250 mg/kg b.w. orally for two weeks. Similarly, metformin was suspended in 0.3% CMC and administered at a dose of 250 mg/kg b.w. orally for two weeks. During the treatment schedule, body weight and food and water intake were monitored at regular intervals. […] The results were expressed in terms of mean±SEM (n=4, from each gender). The data were subjected to one-way ANOVA followed by Tukey's test using GraphPad Prism 4.0 software to establish statistical significance (*p<0.05, **p<0.01, ***p<0.001; ^# p<0.05, ^## p<0.01, ^### p<0.001).

Test [4] shares this test system. In words: Fasting blood glucose in streptozotocin-induced diabetic mice (Study 1). The following applies: 250 mg/kg b.w. orally, Week 3.
Where [5] appears, read: STZ-induced diabetic female mice, Day 5 (Post-Induction).
Where [6] appears, read: STZ-induced diabetic female mice, Day 15 of treatment.
Where [7] appears, read: STZ-induced diabetic female mice, Day 30 of treatment.
Where [8] appears, read: STZ-induced diabetic female mice, Pre-Induction.
Setting [9] is: STZ-induced diabetic male mice, Day 5 (Post-Induction).
The mark [10] stands for this setting: STZ-induced diabetic male mice, Day 15 of treatment.
Setting [11] is: STZ-induced diabetic male mice, Day 30 of treatment.
Setting [12] is: STZ-induced diabetic male mice, Pre-Induction.
The mark [13] stands for this setting: STZ-induced diabetic female mice, Week 2.
Where [14] appears, read: STZ-induced diabetic male mice, Week 2.

Marks after values point to notes of the source that are not given here.

For `O=c1oc2cc(O)ccc2c2ccc(O)cc12` [3,8-(OH)2-DBP, 3,8-dihydroxy-dibenzo-α-pyrone], the Fasting blood glucose in test [1] (setting [5]) was 253.2 ± 5.194*** mg %; in test [1] (setting [6]) it was 166 ± 2.623***^, ### mg %; in test [1] (setting [7]) it was 153.9 ± 9.953***^, ### mg %; in test [1] (setting [8]), 95.45 ± 12.67 mg %; in test [1] (setting [9]), 252.2 ± 1.780 mg %; in test [1] (setting [10]), 166 ± 5.276***^, ### mg %. For the same compound, the Fasting blood glucose in test [1] (setting [11]) is listed as 156.7 ± 10.75***^, ### mg %; in test [1] (setting [12]), 94.12 ± 7.811*** mg %. Further, the “Effect on STZ-induced increased sugar level (FBG), words” value in test [1] (female mice) and in test [1] (male mice) was “attenuated the STZ-induced increased sugar level” in each case.

As for `O=c1oc2cc(O)ccc2c2ccccc12` [3-OH-DBP, 3-hydroxy-dibenzo-α-pyrone], the Fasting blood glucose was 251.6 ± 1.280*** mg % in test [1] (setting [5]); 189.8 ± 2.690***^, ### mg % in test [1] (setting [6]); 147.3 ± 15.21***^, ### mg % in test [1] (setting [7]); 126.8 ± 3.848 mg % in test [1] (setting [8]); 254.6 ± 1.575 mg % in test [1] (setting [9]); 171 ± 6.586***^, ### mg % in test [1] (setting [10]). Besides, the Fasting blood glucose in test [1] (setting [11]) is given as 134.2 ± 3.381***^, ### mg %; in test [1] (setting [12]) it was 99.06 ± 14.73*** mg %. In addition, the “Effect on STZ-induced increased sugar level (FBG), words” value in test [1] (female mice) and in test [1] (male mice) was “attenuated the STZ-induced increased sugar level” in each case.

Regarding `CN(C)C(=N)N=C(N)N` [Metformin, metformin], the “Blood sugar level (FBG)” value in test [2] (STZ-induced diabetic female mice, Day 0) is 119.2 ± 15.5 ^ mg %; in test [2] (STZ-induced diabetic female mice, Week 1), 241.1 ± 22.19*** mg %; in test [2] (setting [13]), 133.8 ± 9.04^## mg %; in test [2] (STZ-induced diabetic male mice, Day 0) it was 117.3 ± 23.99 ^ mg %; in test [2] (STZ-induced diabetic male mice, Week 1) it was 269.2 ± 25.37*** mg %; in test [2] (setting [14]) it was 133.4 ± 7.96**^, # mg %. The “Blood sugar level (FBG)” value stood at 121.2 ± 8.192 mg % in test [4] (STZ-induced diabetic female mice) and 136.2 ± 4.89 mg % in test [4] (STZ-induced diabetic male mice). Moreover, the “Effect on STZ-induced increased sugar level (FBG), words” value in test [2] (female mice) and in test [2] (male mice) was “attenuated the STZ-induced increased sugar level” each time. Also, the HbA1C level is recorded as 5.53 ± 0.46% in test [3] (setting [13]); 3.08 ± 0.58^## % in test [3] (STZ-induced diabetic female mice, Week 3); 5.05 ± 0.51% in test [3] (setting [14]); 4.40 ± 0.65^# % in test [3] (STZ-induced diabetic male mice, Week 3). Also, the “Effect on STZ-induced increase in HbA1C level, words” value in test [3] (male and female mice, Neem 50, Neem 100, Neem 250, Met 250, vs STZ-induced diabetic mice) is given as “attenuated the STZ-induced increased in HbA1C level”.
